{"source": "ChEMBL document CHEMBL4024706", "about": "(Eur J Med Chem, 2017)", "key": {"[1]": {"biological_target": "Non-receptor tyrosine-protein kinase TNK1 (Homo sapiens) (UniProt Q13470)", "assay": "Inhibition of wild-type human full length TNK1 (M1 to P661 residues) expressed in bacterial expression system assessed as residual activity at 1 uM by Kinomescan method relative to control"}, "[2]": {"biological_target": "Serine/threonine-protein kinase N1 (Homo sapiens) (UniProt Q16512)", "assay": "Inhibition of wild-type human partial length PKN1 (E598 to C948 residues) expressed in bacterial expression system assessed as residual activity at 1 uM by Kinomescan method relative to control"}, "[3]": {"biological_target": "Inhibitor of nuclear factor kappa-B kinase subunit epsilon (Homo sapiens) (UniProt Q14164)", "assay": "Inhibition of wild-type human full length IKK-epsilon (M1 to V716 residues) expressed in mammalian expression system assessed as residual activity at 1 uM by Kinomescan method relative to control"}, "[4]": {"biological_target": "Macrophage colony-stimulating factor 1 receptor (Homo sapiens) (UniProt P07333)", "sequence (P07333 whole entry, the tested form may be a part)": "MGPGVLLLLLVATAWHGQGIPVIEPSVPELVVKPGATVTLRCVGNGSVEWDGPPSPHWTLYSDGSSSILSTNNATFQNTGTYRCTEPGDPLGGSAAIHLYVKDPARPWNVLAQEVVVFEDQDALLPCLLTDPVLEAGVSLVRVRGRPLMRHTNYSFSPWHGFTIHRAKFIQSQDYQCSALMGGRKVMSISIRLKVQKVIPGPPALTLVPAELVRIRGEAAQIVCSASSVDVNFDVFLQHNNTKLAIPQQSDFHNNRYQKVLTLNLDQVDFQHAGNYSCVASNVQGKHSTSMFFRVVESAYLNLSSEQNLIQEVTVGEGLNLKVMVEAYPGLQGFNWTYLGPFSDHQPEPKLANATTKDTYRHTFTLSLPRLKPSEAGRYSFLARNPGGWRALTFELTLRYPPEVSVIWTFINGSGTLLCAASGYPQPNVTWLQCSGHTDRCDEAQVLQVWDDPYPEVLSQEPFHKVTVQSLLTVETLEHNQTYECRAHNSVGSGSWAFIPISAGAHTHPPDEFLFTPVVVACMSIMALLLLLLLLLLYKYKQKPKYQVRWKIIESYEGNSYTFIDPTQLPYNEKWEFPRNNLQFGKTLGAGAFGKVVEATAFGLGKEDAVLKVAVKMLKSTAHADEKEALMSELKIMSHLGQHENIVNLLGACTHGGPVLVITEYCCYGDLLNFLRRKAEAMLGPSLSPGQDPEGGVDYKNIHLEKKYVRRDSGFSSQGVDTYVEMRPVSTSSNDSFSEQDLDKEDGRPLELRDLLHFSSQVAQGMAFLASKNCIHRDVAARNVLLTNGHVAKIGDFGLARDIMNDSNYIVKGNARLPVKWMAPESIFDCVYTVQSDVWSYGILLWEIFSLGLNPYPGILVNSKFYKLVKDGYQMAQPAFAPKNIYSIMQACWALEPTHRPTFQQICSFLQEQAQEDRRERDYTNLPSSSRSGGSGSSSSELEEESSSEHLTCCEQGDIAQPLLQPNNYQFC", "assay": "Inhibition of wild-type human partial length CSF1R (I564 to S939 residues) expressed in bacterial expression system assessed as residual activity at 1 uM by Kinomescan method relative to control"}, "[5]": {"biological_target": "Vascular endothelial growth factor receptor 3 (Homo sapiens) (UniProt P35916)", "assay": "Inhibition of wild-type human partial length FLT4 (E821 to E1196 residues) expressed in bacterial expression system assessed as residual activity at 1 uM by Kinomescan method relative to control"}, "[6]": {"biological_target": "RAF proto-oncogene serine/threonine-protein kinase (Homo sapiens) (UniProt P04049)", "assay": "Inhibition of wild-type human partial length RAF1 (I330 to T640 residues) expressed in bacterial expression system assessed as residual activity at 1 uM by Kinomescan method relative to control"}, "[7]": {"biological_target": "Serine/threonine-protein kinase MARK2 (Homo sapiens) (UniProt Q7KZI7)", "sequence (Q7KZI7 whole entry, the tested form may be a part)": "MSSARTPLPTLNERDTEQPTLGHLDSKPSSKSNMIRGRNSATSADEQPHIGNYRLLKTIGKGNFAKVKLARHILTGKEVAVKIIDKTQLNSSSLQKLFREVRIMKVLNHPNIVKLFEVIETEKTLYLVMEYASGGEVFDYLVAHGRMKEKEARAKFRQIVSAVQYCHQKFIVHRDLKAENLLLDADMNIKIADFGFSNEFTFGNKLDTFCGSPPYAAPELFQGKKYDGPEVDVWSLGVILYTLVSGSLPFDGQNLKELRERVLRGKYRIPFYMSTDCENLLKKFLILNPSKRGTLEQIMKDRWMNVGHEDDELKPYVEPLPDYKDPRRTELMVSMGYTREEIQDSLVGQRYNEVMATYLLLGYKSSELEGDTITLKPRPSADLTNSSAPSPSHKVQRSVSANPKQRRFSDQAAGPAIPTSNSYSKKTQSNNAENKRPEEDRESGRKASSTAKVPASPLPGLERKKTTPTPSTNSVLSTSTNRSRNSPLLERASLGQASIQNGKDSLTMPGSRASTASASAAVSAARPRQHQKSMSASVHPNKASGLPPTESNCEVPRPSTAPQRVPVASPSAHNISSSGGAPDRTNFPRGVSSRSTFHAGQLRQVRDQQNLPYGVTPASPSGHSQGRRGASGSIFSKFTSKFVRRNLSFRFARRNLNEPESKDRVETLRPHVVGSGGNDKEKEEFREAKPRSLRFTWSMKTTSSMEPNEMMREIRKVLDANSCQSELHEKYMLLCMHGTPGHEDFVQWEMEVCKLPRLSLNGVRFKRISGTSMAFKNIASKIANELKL", "assay": "Inhibition of wild-type human partial length MARK2 (M1 to R450 residues) expressed in bacterial expression system assessed as residual activity at 1 uM by Kinomescan method relative to control"}, "[8]": {"biological_target": "Serine/threonine-protein kinase OSR1 (Homo sapiens) (UniProt O95747)", "assay": "Inhibition of wild-type human full length OSR1 (M1 to S527 residues) expressed in mammalian expression system assessed as residual activity at 1 uM by Kinomescan method relative to control"}, "[9]": {"biological_target": "Receptor-interacting serine/threonine-protein kinase 4 (Homo sapiens) (UniProt P57078)", "assay": "Inhibition of wild-type human partial length RIPK4 (M1 to V303 residues) expressed in mammalian expression system assessed as residual activity at 1 uM by Kinomescan method relative to control"}, "[10]": {"biological_target": "Serine/threonine-protein kinase 32B (Homo sapiens) (UniProt Q9NY57)", "assay": "Inhibition of wild-type human full length YANK2 (M1 to S414 residues) expressed in bacterial expression system assessed as residual activity at 1 uM by Kinomescan method relative to control"}, "[11]": {"biological_target": "Serine/threonine-protein kinase 32A (Homo sapiens) (UniProt Q8WU08)", "sequence (Q8WU08 whole entry, the tested form may be a part)": "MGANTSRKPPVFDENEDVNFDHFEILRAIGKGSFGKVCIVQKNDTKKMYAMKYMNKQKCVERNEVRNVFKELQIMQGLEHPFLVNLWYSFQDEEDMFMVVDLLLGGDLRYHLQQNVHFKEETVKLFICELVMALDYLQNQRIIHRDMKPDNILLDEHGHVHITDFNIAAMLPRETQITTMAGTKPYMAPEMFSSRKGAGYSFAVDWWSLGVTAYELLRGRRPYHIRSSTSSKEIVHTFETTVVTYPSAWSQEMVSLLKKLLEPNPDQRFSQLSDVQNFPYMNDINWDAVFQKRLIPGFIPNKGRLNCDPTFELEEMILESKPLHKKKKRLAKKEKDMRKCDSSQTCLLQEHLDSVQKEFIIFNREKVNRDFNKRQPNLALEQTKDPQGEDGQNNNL", "assay": "Inhibition of wild-type human full length YANK1 (M1 to L396 residues) expressed in mammalian expression system assessed as residual activity at 1 uM by Kinomescan method relative to control"}, "[12]": {"biological_target": "Serine/threonine-protein kinase MARK1 (Homo sapiens) (UniProt Q9P0L2)", "assay": "Inhibition of wild-type human partial length MARK1 (Q30 to T341 residues) expressed in bacterial expression system assessed as residual activity at 1 uM by Kinomescan method relative to control"}, "[13]": {"biological_target": "Cyclin-dependent kinase-like 2 (Homo sapiens) (UniProt Q92772)", "assay": "Inhibition of wild-type human partial length CDKL2 (M1 to D327 residues) expressed in bacterial expression system assessed as residual activity at 1 uM by Kinomescan method relative to control"}, "[14]": {"biological_target": "Serine/threonine-protein kinase 17A (Homo sapiens) (UniProt Q9UEE5)", "sequence (Q9UEE5 whole entry, the tested form may be a part)": "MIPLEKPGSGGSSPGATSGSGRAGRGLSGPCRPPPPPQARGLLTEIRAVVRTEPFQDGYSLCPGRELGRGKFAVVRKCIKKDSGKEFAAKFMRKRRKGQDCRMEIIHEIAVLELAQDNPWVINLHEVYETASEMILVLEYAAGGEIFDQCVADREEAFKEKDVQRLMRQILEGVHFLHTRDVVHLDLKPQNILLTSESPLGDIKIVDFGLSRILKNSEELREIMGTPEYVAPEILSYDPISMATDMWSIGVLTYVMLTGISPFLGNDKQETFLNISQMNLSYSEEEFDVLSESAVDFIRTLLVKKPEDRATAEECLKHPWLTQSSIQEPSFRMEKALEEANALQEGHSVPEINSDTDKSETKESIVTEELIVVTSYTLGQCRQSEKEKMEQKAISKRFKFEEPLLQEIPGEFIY", "assay": "Inhibition of wild-type human partial length DRAK1 (R32 to E363 residues) expressed in bacterial expression system assessed as residual activity at 1 uM by Kinomescan method relative to control"}, "[15]": {"assay": "Elimination half-life in Sprague-Dawley rat at 1 mg/kg, iv by LC-MS/MS method", "type": "ADME, organism-based", "conditions": "in vivo, read-out: beta t1/2 (converted)"}, "[16]": {"biological_target": "Interleukin-1 receptor-associated kinase 3 (Homo sapiens) (UniProt Q9Y616)", "sequence (Q9Y616 whole entry, the tested form may be a part)": "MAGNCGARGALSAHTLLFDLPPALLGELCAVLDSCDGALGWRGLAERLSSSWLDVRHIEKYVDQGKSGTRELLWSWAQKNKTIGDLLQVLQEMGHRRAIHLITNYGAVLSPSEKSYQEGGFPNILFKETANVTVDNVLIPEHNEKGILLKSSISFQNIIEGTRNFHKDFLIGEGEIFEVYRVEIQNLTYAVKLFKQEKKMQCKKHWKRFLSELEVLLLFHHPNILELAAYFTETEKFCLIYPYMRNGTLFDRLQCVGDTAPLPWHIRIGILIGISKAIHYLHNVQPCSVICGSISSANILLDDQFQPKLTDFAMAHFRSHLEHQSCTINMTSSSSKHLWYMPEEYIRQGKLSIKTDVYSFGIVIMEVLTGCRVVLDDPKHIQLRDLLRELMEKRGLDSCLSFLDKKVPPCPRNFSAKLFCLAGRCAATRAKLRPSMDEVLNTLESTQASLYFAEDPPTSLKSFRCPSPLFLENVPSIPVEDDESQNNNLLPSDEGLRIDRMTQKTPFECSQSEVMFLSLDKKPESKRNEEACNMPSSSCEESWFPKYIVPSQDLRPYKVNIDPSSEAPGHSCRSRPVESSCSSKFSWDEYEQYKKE", "assay": "Inhibition of wild-type human partial length IRAK3 (V147 to E596 residues) expressed in bacterial expression system assessed as residual activity at 1 uM by Kinomescan method relative to control"}, "[17]": {"biological_target": "BMP-2-inducible protein kinase (Homo sapiens) (UniProt Q9NSY1)", "sequence (Q9NSY1 whole entry, looked up, the tested form may be a part)": "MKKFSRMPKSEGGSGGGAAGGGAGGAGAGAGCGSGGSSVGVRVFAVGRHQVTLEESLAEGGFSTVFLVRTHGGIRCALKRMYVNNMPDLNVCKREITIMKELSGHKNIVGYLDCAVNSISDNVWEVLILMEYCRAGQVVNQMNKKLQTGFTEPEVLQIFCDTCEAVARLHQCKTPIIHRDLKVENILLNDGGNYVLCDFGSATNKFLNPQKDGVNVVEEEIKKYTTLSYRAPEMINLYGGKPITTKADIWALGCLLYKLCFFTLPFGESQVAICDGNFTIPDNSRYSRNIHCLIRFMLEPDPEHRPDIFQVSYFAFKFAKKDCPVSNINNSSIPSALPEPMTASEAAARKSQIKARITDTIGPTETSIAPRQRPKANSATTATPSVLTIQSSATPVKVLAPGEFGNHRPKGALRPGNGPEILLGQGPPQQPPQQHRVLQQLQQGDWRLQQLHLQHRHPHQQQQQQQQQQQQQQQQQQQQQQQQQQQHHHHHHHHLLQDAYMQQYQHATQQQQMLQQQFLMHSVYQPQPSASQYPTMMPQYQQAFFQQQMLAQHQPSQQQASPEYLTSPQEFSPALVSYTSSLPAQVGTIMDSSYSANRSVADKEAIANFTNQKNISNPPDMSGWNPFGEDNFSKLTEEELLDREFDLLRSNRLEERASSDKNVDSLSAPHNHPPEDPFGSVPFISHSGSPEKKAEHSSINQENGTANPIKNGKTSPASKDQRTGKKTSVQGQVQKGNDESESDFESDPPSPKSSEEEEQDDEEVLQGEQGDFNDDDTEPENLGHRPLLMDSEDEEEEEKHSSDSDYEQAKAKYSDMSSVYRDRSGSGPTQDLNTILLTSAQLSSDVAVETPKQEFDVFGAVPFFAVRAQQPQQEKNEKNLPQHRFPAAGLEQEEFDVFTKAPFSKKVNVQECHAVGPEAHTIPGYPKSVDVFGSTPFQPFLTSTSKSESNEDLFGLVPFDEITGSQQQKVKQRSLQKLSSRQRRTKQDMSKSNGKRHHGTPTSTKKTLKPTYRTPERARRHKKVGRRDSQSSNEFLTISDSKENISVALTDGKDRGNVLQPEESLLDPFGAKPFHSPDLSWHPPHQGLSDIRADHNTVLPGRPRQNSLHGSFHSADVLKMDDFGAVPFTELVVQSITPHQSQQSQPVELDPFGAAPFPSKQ", "assay": "Inhibition of wild-type human partial length BIKE (S34 to N329 residues) expressed in bacterial expression system assessed as residual activity at 1 uM by Kinomescan method relative to control"}, "[18]": {"biological_target": "Glycogen synthase kinase-3 beta (Homo sapiens) (UniProt P49841)", "sequence (P49841 whole entry, looked up, the tested form may be a part)": "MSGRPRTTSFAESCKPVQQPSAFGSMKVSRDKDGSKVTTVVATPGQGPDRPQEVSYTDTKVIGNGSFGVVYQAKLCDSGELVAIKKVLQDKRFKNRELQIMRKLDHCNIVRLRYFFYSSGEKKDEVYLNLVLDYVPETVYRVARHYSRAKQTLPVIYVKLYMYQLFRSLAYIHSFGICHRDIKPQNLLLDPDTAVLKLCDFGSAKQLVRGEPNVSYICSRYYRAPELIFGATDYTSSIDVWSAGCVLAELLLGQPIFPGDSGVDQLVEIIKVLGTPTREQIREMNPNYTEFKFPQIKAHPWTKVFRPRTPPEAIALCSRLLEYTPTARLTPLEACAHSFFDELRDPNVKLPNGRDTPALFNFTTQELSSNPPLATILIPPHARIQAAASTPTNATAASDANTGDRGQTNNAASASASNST", "assay": "Inhibition of wild-type human full length GSK3B (M1 to T433 residues) expressed in mammalian expression system assessed as residual activity at 1 uM by Kinomescan method relative to control"}, "Pfeiffer": {"test_system": "Pfeiffer", "assay": "Induction of apoptosis in human Pfeiffer cells assessed as induction of PARP cleavage after 48 hrs by immunoblot", "type": "functional, cell-based"}, "[19]": {"biological_target": "Macrophage-stimulating protein receptor (Homo sapiens) (UniProt Q04912)", "assay": "Inhibition of wild-type human partial length MST1R (I1057 to L1363 residues) expressed in bacterial expression system assessed as residual activity at 1 uM by Kinomescan method relative to control"}, "[20]": {"biological_target": "Serine/threonine-protein kinase Sgk3 (Homo sapiens) (UniProt Q96BR1)", "assay": "Inhibition of wild-type human partial length SGK3 (M119 to L496 residues) expressed in mammalian expression system assessed as residual activity at 1 uM by Kinomescan method relative to control"}, "[21]": {"biological_target": "RAC-gamma serine/threonine-protein kinase (Homo sapiens) (UniProt Q9Y243)", "assay": "Inhibition of wild-type human partial length AKT3 expressed in bacterial expression system assessed as residual activity at 1 uM by Kinomescan method relative to control"}, "[22]": {"biological_target": "5'-AMP-activated protein kinase catalytic subunit alpha-1 (Homo sapiens) (UniProt Q13131)", "assay": "Inhibition of wild-type human partial length AMPK alpha1 (M1 to E306 residues) expressed in bacterial expression system assessed as residual activity at 1 uM by Kinomescan method relative to control"}, "[23]": {"biological_target": "NUAK family SNF1-like kinase 2 (Homo sapiens) (UniProt Q9H093)", "assay": "Inhibition of wild-type human partial length SNARK (P22 to A333 residues) expressed in mammalian expression system assessed as residual activity at 1 uM by Kinomescan method relative to control"}, "[24]": {"test_system": "Proto-oncogene tyrosine-protein kinase receptor Ret (Homo sapiens), P07949 [V804L]", "assay": "Inhibition of human partial length RET V804L mutant (E713 to D1014 residues) expressed in bacterial expression system assessed as residual activity at 1 uM by Kinomescan method relative to control"}, "[25]": {"biological_target": "Mast/stem cell growth factor receptor Kit (Homo sapiens) (UniProt P10721)", "assay": "Inhibition of wild-type human partial length KIT (I571 to D952 residues) expressed in bacterial expression system assessed as residual activity at 1 uM by Kinomescan method relative to control"}}, "data": [{"compound": "C=CC(=O)Nc1cc(Nc2cc(-c3cccc(NC(=O)c4ccc(C(C)(C)C)cc4)c3C)cn(C)c2=O)ccc1C(=O)N1CCOCC1", "values": [{"measurement": "Activity", "setting": "[1]", "value": 92, "unit": "%"}, {"measurement": "Activity", "setting": "[2]", "value": 100, "unit": "%"}, {"measurement": "Activity", "setting": "[3]", "value": 100, "unit": "%"}, {"measurement": "Activity", "setting": "[4]", "value": 86, "unit": "%"}, {"measurement": "Activity", "setting": "[5]", "value": 100, "unit": "%"}, {"measurement": "Activity", "setting": "[6]", "value": 99, "unit": "%"}, {"measurement": "Activity", "setting": "[7]", "value": 99, "unit": "%"}, {"measurement": "Activity", "setting": "[8]", "value": 100, "unit": "%"}, {"measurement": "Activity", "setting": "[9]", "value": 94, "unit": "%"}, {"measurement": "Activity", "setting": "[10]", "value": 100, "unit": "%"}, {"measurement": "Activity", "setting": "[11]", "value": 83, "unit": "%"}, {"measurement": "Activity", "setting": "[12]", "value": 88, "unit": "%"}, {"measurement": "Activity", "setting": "[13]", "value": 100, "unit": "%"}, {"measurement": "Activity", "setting": "[14]", "value": 82, "unit": "%"}, {"measurement": "half-life", "setting": "[15]", "value": 13.8, "unit": "min"}, {"measurement": "Activity", "setting": "[16]", "value": 96, "unit": "%"}, {"measurement": "Activity", "setting": "[17]", "value": 94, "unit": "%"}, {"measurement": "Activity", "setting": "[18]", "value": 87, "unit": "%"}, {"measurement": "Activity", "setting": "Pfeiffer", "value": "Dose-dependent effect"}, {"measurement": "Activity", "setting": "[19]", "value": 97, "unit": "%"}, {"measurement": "Activity", "setting": "[20]", "value": 81, "unit": "%"}, {"measurement": "Activity", "setting": "[21]", "value": 95, "unit": "%"}, {"measurement": "Activity", "setting": "[22]", "value": 89, "unit": "%"}, {"measurement": "Activity", "setting": "[23]", "value": 87, "unit": "%"}, {"measurement": "Activity", "setting": "[24]", "value": 100, "unit": "%"}, {"measurement": "Activity", "setting": "[25]", "value": 98, "unit": "%"}]}]}
